Experimental data as given in patent publication US20240174690A1, “ANNULATED 2-AMINO-3-CYANO THIOPHENES AND DERIVATIVES FOR THE TREATMENT OF CANCER” (BOEHRINGER INGELHEIM INTERNATIONAL GMBH, priority 2021, published 2024).

Tests used:
Caco-2 cell monolayers = test: Caco-2 assay (permeability PappAB, PappBA, efflux ratio); assay type: in vitro ADME; conditions: 10 μM test compound, pH 7.4
In short: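 Bidirectional permeability (apical-to-basolateral and reverse) through polarized Caco-2 monolayers, BSA 0.25% on each side, 37 °C. Donor and receiver sampled at 0-90 min after 25-30 min preincubation, analysed by HPLC/MS/MS. Apparent permeabilities derived from transfer rate normalised to area and t=0 donor concentration; ER taken as PappBA over PappAB.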

A375 cells = test: A375 CTG proliferation assay (120 h) (melanoma, wt, B-Raf mutant, negative control); assay type: cell-based; conditions: Homo sapiens, A-375, CTG 120 h
Protocol: A375 CTG Proliferation Assay (120 h) (Melanoma, Wt, B-Raf Mutant, Negative Control)
A375 cells (ATCC CRL-1619) are dispensed into 384-well plates, flat and clear bottom (Greiner, PNr. 781091) at a density of 300 cells per well in 60 μL DMEM (Sigma 06429)+10% Fetal Calf Serum (HyClone, PNr.: SH30084.03) and incubated at 37° C. in a CO2 incubator overnight. The next day, compounds (10 mM stock in DMSO) are added at logarithmic dose series using the HP Digital Dispenser D300 (Tecan), including DMSO controls. Plates are incubated for 120 h, and cell viability is measured using CellTiter-Glo luminescent cell viability reagent (Promega product code G7570). Viability (stated as percent of control) is defined as relative luminescence units RLU of each well divided by the RLU of cells in DMSO controls. IC50 values are determined from viability measurements by non-linear regression using a four-parameter model.

Row | Compound | Caco PappAB (Caco-2 cell monolayers; apical to basolateral) [×10⁻⁶ cm/s] | Caco ER (Caco-2 cell monolayers; efflux ratio PappBA/PappAB) | IC50 (A375 cells) [nM]
1 | C[C@H](Oc1cc(-c2ccn(C)n2)nc(-c2onc3c2CCC[C@@]32CCCc3sc(N)c(C#N)c32)n1)[C@@H]1CCCN1C [I-21] | 5.1 | 6.8 | 
2 | C[C@H](Oc1cc([C@@H]2CCOC2)nc(-c2onc3c2CCC[C@@]32CCCc3sc(N)c(C#N)c32)n1)[C@@H]1CCCN1C [I-22] |  |  | > 3000
3 | C[C@H](Oc1cc(-n2ccc(C(=O)N3CCCC3)n2)nc(-c2noc3c2CCC[C@@]32CCCc3sc(N)c(C#N)c32)n1)[C@@H]1CCCN1C [II-19] |  |  | 1120
4 | CNC(=O)c1ccn(-c2cc(O[C@@H](C)[C@@H]3CCCN3C)nc(-c3noc4c3CCC[C@@]43CCCc4sc(N)c(C#N)c43)n2)n1 [II-20] |  |  | > 3000
5 | C[C@H](Oc1cc(-n2ccc(C(N)=O)n2)nc(-c2noc3c2CCC[C@@]32CCCc3sc(N)c(C#N)c32)n1)[C@@H]1CCCN1C [II-21] |  |  | > 3000
6 | C[C@H](Oc1cc(-c2ccn(C)n2)nc(-c2noc3c2CCC[C@@]32CCCc3sc(N)c(C#N)c32)n1)[C@@H]1C[C@@H](F)CN1C [II-27] |  |  | > 3000
